A word on the viability: it is a read-out of living cells in per cent, often relative to untreated cells.

The values below come from paper PMC12040169 (PLOS Biology, 2025).

This data set in a line: in vitro. As to conditions: human, hela cells, % viability.

As for `N#Cc1cnc2ccccc2c1N1CCC(C(=O)O)CC1` [CBK288050], the viability at 28.5 h, 10 µM turned out to be 90%. The same measure, in the same setting: under `COc1cccc(CN2CCC(C(=O)O)CC2)c1OC` [CBK286548] stands 90.5%; under `COc1ccc(C(CNC(=O)C(=O)Nc2ccc(C(=O)O)cc2)N(C)C)cc1` (centres unmarked) [CBK286724], 119%; under `Cc1cccc(NC2(C(F)(F)F)N=C(c3ccccc3)NC2=O)n1` (centres unmarked) [CBK267476], 92.9%. On the same count and under the same terms, under `Cc1ccc(C(=O)NCCN2CCC(O)(c3ccc(F)cc3)CC2)o1` [CBK283167] stands 86.3%; under `COc1ccc(S(=O)(=O)Nc2nccnc2-c2cccs2)cc1OC` [CBK050774], 104%. On to `COc1ccc(C2CCN(C(=O)C3CCCO3)CC2)cc1` (centres unmarked) [CBK285473], for which the viability at 28.5 h, 10 µM was determined as 102%.

Turning to `CC(C)n1c(=O)oc2cc(S(=O)(=O)NC(c3ccccc3)c3ccccc3)ccc21` [CBK286350], the viability at 28.5 h, 10 µM amounted to 91.7%. The same measure, in the same setting: with `Cc1cccc(NC(=O)c2cc(NC(=O)C3CCCCC3C(=O)O)ccc2N2CCCCC2)c1` (centres unmarked) [CBK267332] the figure was 97.3%; with `Cc1cc(C)cc(NC(=O)c2ccccc2NS(=O)(=O)c2cccc(Cl)c2)c1` [CBK113887], 94.9%. The same measure, in the same setting: with `CC(=O)Nc1cccc(Oc2nccnc2/C=C/c2ccccc2)c1` [CBK106881] the figure was 91.6%; with `CN1CCCN(Cc2ccc3c(c2)c(=O)c(C(=O)NCc2ccc(Cl)cc2)cn3C)CC1` [CBK018019], 82.8%. Still for that read-out and setting: with `O=C(Nc1ccc2nc(SCc3ccc([N+](=O)[O-])cc3)sc2c1)c1ccccc1` [CBK263427] the figure was 98.4%; with `Cc1ccc(-c2ccccc2CC2(C(=O)O)CCN(Cc3ccccc3F)CC2)c(C)c1` [CBK286418], 96.7%; with `CCc1nccn1CCC(=O)NC(c1ccc(C)cc1)c1cccnc1` (centres unmarked) [CBK282032], 103%. Turning to `Cc1ccccc1NCC(=O)N/N=C\c1cc(Br)c(O)c(Br)c1` [CBK262120], the viability at 28.5 h, 10 µM is 87.7%. Still for that read-out and setting: under `O=C(NCCN1CCCCC1)c1cccc(Oc2ccccc2)c1` [CBK270335] stands 98.2%; under `O=C(O)c1cc(-n2c(S)nnc2-c2ccc3ccccc3n2)ccc1Cl` [CBK269512], 86.1%; under `O=C(CCN1C(=O)/C(=C\C=C\c2ccccc2)SC1=S)Nc1cc(Cl)ccc1O` [CBK264792], 96.2%.

`CCN(CC)CCNc1c(N)c(=O)oc2ccccc12` [CBK261469]: the viability at 28.5 h, 10 µM came to 91.7%. On the same count and under the same terms, under `O=C(CCS(=O)(=O)c1ccccc1)Nc1ccc(N2CCNCC2)c2ccccc12` [CBK028408T] stands 92.6%; under `C=CCn1c2ccccc2c2nnc(SCC(=O)N3c4ccccc4Sc4ccccc43)nc21` [CBK263237], 106%. For `OC(CN1CCC(O)(Cn2cnc3ccccc32)CC1)c1ccc(-c2ccccc2)cc1` (centres unmarked) [CBK286437], the viability at 28.5 h, 10 µM came to 89%. On the same count and under the same terms, under `CC(C)c1n[nH]c(=S)n1C1CCc2ccccc21` (centres unmarked) [CBK288374] stands 87.1%. Still for that read-out and setting: with `COc1c(Cl)cc(Cl)cc1CNC(C)(C)CO` [CBK270212C] the figure was 102%; with `CNC(=O)CC1SC(NC2CC3C=CC2C3)=NC1=O` (centres unmarked) [CBK047491], 90.7%; with `COc1ccc(N(C(C)C(=O)N/N=C(\C)c2ccccc2O)S(C)(=O)=O)cc1` (centres unmarked) [CBK262402], 93.4%. On the same count and under the same terms, with `c1ccc2c(Sc3nccnc3N3CCCC3)cccc2c1` [CBK089527] the figure was 89.2%; with `CN1CCC[C@H]1C(=O)Nc1cc(-c2ccncc2)c[nH]c1=O` [CBK116587], 107%; with `Cc1cccc(CNc2nccnc2-c2cccc(Cl)c2)c1` [CBK037527], 109%. Regarding `COc1ccccc1Cc1cccc(C2CCCN2C(=O)c2ccc(F)cc2)n1` (centres unmarked) [CBK286239], the viability at 28.5 h, 10 µM worked out at 99.1%. Same read-out and setting: under `COc1cccc2c(=O)n(CCCn3nc(C)nc3C)cnc12` [CBK307295] stands 97%. Still for that read-out and setting: under `O=C(CSc1nnc(-c2cccs2)n1-c1ccccc1)c1c[nH]c2ccccc12` [CBK268452] stands 101%.

For `CS(=O)(=O)N(Cc1ccccc1)c1ccc(C(=O)Nc2ccc3c(c2)OCO3)cc1` [CBK033562], the viability at 28.5 h, 10 µM was 85.4%.

With `CN1CCC(=NNC(=O)c2cc(O)c(O)c(O)c2)CC1` [CBK262660], the viability at 28.5 h, 10 µM turned out to be 78.6%.

`Cc1ccc2nc(-c3ccccc3)c(CC(=O)O)c(C(=O)O)c2c1` [CBK265128]: the viability at 28.5 h, 10 µM worked out at 87.3%.

For the compound `Cc1cc(NC(=O)CCN2CCCCC2)no1` [CBK017079], the viability at 28.5 h, 10 µM came to 99%. Consider `CCOC(=O)C1(c2ccccc2)CCN(C(=O)c2ccc(S(N)(=O)=O)cc2)CC1` [CBK132200], for which the viability at 28.5 h, 10 µM (bulk resorufin, single well) was determined as 99.7%. Consider `Cc1cc(NC(=O)CSc2nnc(-c3ccccc3)o2)no1` [CBK287389], for which the viability at 28.5 h, 10 µM is 96.2%. On the same count and under the same terms, with `CC(C)NC(=O)[C@H]1O[C@H](CCN2CCN(c3ccccn3)CC2)CC[C@@H]1O` [CBK288722] the figure was 90.7%. On to `Cc1ccnc(SCC(=O)c2cc(C)n(C3CC3)c2C)n1` [CBK304686], for which the viability at 28.5 h, 10 µM worked out at 97.6%.

Take `Nc1ncc(-c2cncnc2)nc1N1CCOCC1` [CBK063422]: the viability at 28.5 h, 10 µM was 93.7%.

As to `COc1ccc(-n2c(=O)c3ccccc3n(CC(=O)NC3CCCC3)c2=O)cc1` [CBK287574], the viability at 28.5 h, 10 µM came out at 92.2%. As to `CCOC(=O)c1sc(NC(=O)C2CCCCC2)nc1C` [CBK057893], the viability at 28.5 h, 10 µM was determined as 92.3%. In the case of `CC(C)(O)c1cc(CC2(NCc3ccco3)COC2)no1` [CBK289255], the viability at 28.5 h, 10 µM was found to be 92.6%. The same measure, in the same setting: with `O=C(NCCNC(=O)c1ccccn1)c1cccc(F)c1` [CBK269613] the figure was 78.3%. The same measure, in the same setting: with `O=C(O)CCN1CCn2c3c(c4cc(C5CCCCC5)ccc42)CCCC31` (centres unmarked) [CBK263236] the figure was 91.4%; with `CCOC(=O)CN(Cc1ccccc1)Cc1ccc(OC)cc1` [CBK126460], 103%; with `CCn1c(CN2CCn3c(nnc3C3CC3)C2)nc2c(F)cccc21` [CBK306300], 96.6%. The same measure, in the same setting: under `O=C(Cn1nnc2ccccc2c1=O)N1CCCC(C(F)(F)F)C1` (centres unmarked) [CBK305900] stands 80.5%.

For the compound `Cc1sc2nc(C)n(C3CCNCC3)c(=O)c2c1C` [CBK282421], the viability at 28.5 h, 10 µM turned out to be 113%. `CC1CCc2c(C(=O)N3CC(C)OC(C)C3)csc2C1` (centres unmarked) [CBK304442]: the viability at 28.5 h, 10 µM is 106%. Consider `Cc1cc(NC(=O)C2CCN(C(=O)CNc3ccccc3)CC2)no1` [CBK304297C], for which the viability at 28.5 h, 10 µM was determined as 85.9%. On the same count and under the same terms, with `Cc1nc[nH]c1CN(Cc1cccc(F)c1)Cc1ccco1` [CBK282493] the figure was 75.7%; with `Cc1noc(C)c1CC(=O)NCC(C)(C)N1CCCCC1` [CBK281863], 90.3%; with `CC(C)(C)OC(=O)N1CCN(c2ccc(Cl)nn2)CC1` [CBK113381], 96.2%. On the same count and under the same terms, under `CN(c1ccc(C(=O)Nc2cccc(C(=O)O)c2)cc1)S(=O)(=O)c1ccccc1` [CBK265729] stands 95.7%. The same measure, in the same setting: under `CS(=O)(=O)c1ccc(-c2ccc(OCC3CCN(C(=O)c4cccc(C#N)c4)CC3)nc2)cc1` [CBK162283] stands 93.3%; under `O=C(Nc1ccccc1C(=O)N1CCCC1)c1ccccc1CCc1ccccc1` [CBK268608], 104%; under `COC(=O)Nc1nc2cc(F)c(Cl)cc2[nH]1` [CBK026927], 102%. With `Nc1ccccc1CC(c1c[nH]c2ccccc12)c1c[nH]c2ccccc12` [CBK261780], the viability at 28.5 h, 10 µM came to 103%. Turning to `O=C(NCCN1CCOCC1)c1cc(-c2ccc(Cl)cc2Cl)nc2ccccc12` [CBK265379], the viability at 28.5 h, 10 µM came out at 113%. Same read-out and setting: under `CN(C)C(=O)N1CCN(C(=O)c2cn(Cc3cccc(S(C)(=O)=O)c3)nn2)CC1` [CBK160969T] stands 89.7%; under `Cc1nccn1-c1ccc(NC(=O)C2CC(=O)N(C3CCCC3)C2)cc1F` (centres unmarked) [CBK298286], 83.1%. On the same count and under the same terms, with `Nc1ncn(Cc2ccccc2)c2nc(SCC(=O)O)nc1-2` [CBK267027] the figure was 99.2%; with `CC1(C)[C@H]2CC/C(=N/O)[C@]1(C)NC2=O` [CBK006513], 84.8%. The same measure, in the same setting: with `C=CCC1(CC=C)CCN1C(=O)c1cc(-c2ccccn2)n[nH]1` [CBK282448] the figure was 106%; with `O=C(NCCCn1ccnc1)c1ccccc1C(=O)c1ccccc1` [CBK262954], 93.2%. `COc1ccc(NC2=N[C@H]3[C@@H](O)[C@H](O)C[C@H](C(=O)N(C)Cc4ccccc4)[C@H]3S2)cc1` [CBK288950]: the viability at 28.5 h, 10 µM came to 96.7%.

As for `CCCCOc1ccc(C(=O)N/C(=C/c2ccc(OC)cc2)C(=O)O)cc1` [CBK300490], the viability at 28.5 h, 10 µM is 87.5%. The same measure, in the same setting: under `O=C(CCNS(=O)(=O)c1ccc(Cl)cc1)N1CCN(Cc2ccccc2)CC1` [CBK269405] stands 101%; under `O=C(O)c1ccc(-c2cnc3ccccc3n2)cc1` [CBK288010], 106%. The same measure, in the same setting: with `O=C(Nc1cccc(-c2ccc3nncn3n2)c1)c1ccc(F)cc1` [CBK287682] the figure was 87.1%. With `O=C(NC(=S)Nc1cccc2c(O)cccc12)c1ccc(-c2ccccc2)cc1` [CBK269022], the viability at 28.5 h, 10 µM was 85.3%.

`CCCn1c(SCC(=O)N2CCOCC2)nc2ccc(Br)cc2c1=O` [CBK305929]: the viability at 28.5 h, 10 µM stood at 83%. Still for that read-out and setting: with `O=C(O)C(Cc1ccccc1)C(C(=O)O)c1ccccc1` (centres unmarked) [CBK286578] the figure was 94.3%; with `Cc1onc(-c2ccccc2)c1CNC(=O)CC1CC1` [CBK144072], 85.4%.

As for `Cc1cc(C)n(CCNCc2cc(-c3ccc(F)cc3)c[nH]c2=O)n1` [CBK284694], the viability at 28.5 h, 10 µM was 89.2%. Still for that read-out and setting: with `CCCNC(=O)Cn1nc(CC)n2c(cc3ccsc32)c1=O` [CBK284130] the figure was 91.5%. For the compound `Cc1[nH]c(=O)[nH]c(=S)c1C(=O)Nc1ccc2c(c1)OCO2` [CBK115519], the viability at 28.5 h, 10 µM was determined as 100%.
